14 compounds from patent US7834048B2, “Azabicycloheptyl compounds suitable for treating disorders that respond to modulation of the dopamine D3 receptor” (Abbott GmbH & Co. KG, priority 2004, dated 2010) can be followed below.

Experiment [1] addresses T1, human dopamine D3 receptors (Homo sapiens, UniProt P35462).
T1 construct: expressed in transfected cells
Kind of experiment: Dopamine D3 receptor binding, [125I]-iodosulpride displacement, HEK-293 membranes. To be noted: for Ki(D2)*/Ki(D3)*: selectivity, ratio of receptor binding constants D2L vs D3; for Ki: receptor binding constant, membranes of HEK-293 cells, 0.1 nM [125I]-iodosulpride, 25° C., 60 minutes. As for the experimental part:
(§1) The substance to be tested was either dissolved in methanol/Chremophor® (BASF-AG) or in dimethyl sulfoxide and then diluted with water to the desired concentration.
(§2) Each assay mixture was run in triplicate.
The incubation buffer contained 50 mM tris, 120 mM NaCl, 5 mM KCl, 2 mM CaCl2, 2 mM MgCl2 and 0.1% bovine serum albumin, 10 μM […] and 0.1% ascorbic acid (prepared fresh daily). The buffer was adjusted to pH 7.4 with HCl.
(§3) After having been incubated at 25° C. for 60 minutes, the assay mixtures were filtered through a Whatman GF/B glass fiber filter under vacuum using a cell collecting device. The filters were transferred to scintillation viols using a filter transfer system. After 4 ml of Ultima Gold® (Packard) have been added, the samples were shaken for one hour and the radioactivity was then counted in a Beta-Counter (Packard, Tricarb 2000 or 2200CA). The cpm values were converted into dpm using a standard quench series and the program belonging to the instrument.
(§4) The inhibition curves were analyzed by means of iterative nonlinear regression analysis using the Statistical Analysis System (SAS) which is similar to the “LIGAND” program described by Munson and Rodbard.
(§5) The results of the receptor binding studies are expressed as receptor binding constants Ki(D2) and Ki(D3), respectively, as herein before described, and given in table 1.

The target in experiment [2] is T2, human dopamine D2L receptors (long isoform) (Homo sapiens, UniProt P14416).
T2 construct: expressed in transfected cells
Kind of experiment: Dopamine D2L receptor binding, [125I]iodospiperone displacement, HEK-293 membranes. To be noted: receptor binding constant; membranes of HEK-293 cells, 0.01 nM [125I]iodospiperone, 25° C., 60 minutes; read-out: Ki(D2)*. As for the experimental part:
as §1, §2
The incubation buffer contained 50 mM tris, 120 mM NaCl, 5 mM KCl, 2 mM CaCl2, 2 mM MgCl2 and 0.1% bovine serum albumin. The buffer was adjusted to pH 7.4 with HCl.
as §3, §4, §5

A word on the Ki: it is a measure of affinity in units of concentration, obtained from inhibition or displacement.

T1 sequence (P35462 whole entry): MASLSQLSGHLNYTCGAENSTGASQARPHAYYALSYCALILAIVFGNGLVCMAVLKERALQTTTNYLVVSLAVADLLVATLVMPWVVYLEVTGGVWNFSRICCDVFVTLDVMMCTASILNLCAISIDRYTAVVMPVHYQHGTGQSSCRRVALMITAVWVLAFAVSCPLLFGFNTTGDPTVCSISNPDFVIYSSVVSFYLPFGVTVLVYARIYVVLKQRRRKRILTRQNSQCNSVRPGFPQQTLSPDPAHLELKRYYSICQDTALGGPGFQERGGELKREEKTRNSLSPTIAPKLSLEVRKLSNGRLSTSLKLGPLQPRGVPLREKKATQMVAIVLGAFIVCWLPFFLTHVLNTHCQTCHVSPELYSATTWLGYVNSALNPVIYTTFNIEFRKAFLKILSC
T2 sequence (P14416 whole entry, canonical isoform): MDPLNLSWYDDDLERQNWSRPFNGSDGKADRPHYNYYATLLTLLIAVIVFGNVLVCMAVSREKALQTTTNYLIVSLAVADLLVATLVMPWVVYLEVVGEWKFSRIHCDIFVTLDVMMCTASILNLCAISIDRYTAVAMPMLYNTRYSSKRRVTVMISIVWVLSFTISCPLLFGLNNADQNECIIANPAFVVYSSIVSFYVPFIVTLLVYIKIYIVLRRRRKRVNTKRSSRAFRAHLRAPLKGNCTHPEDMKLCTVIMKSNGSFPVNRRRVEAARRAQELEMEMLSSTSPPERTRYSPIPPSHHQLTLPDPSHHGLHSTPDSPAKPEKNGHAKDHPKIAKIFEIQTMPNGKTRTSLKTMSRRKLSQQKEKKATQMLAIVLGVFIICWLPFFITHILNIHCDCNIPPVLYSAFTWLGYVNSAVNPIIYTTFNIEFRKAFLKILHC

For the compound `CCCN1C[C@H]2C[C@H](c3ccc(NS(=O)(=O)c4ccc(C(C)C)cc4)cc3)[C@H]2C1` (relative stereo) [Example 3, 4-Isopropyl-N-[4-(exo-3-propyl-3-aza-bicyclo[3.2.0]hept-6-yl)-phenyl]-benzenesulfonamide], in experiment [1], the “Ki(D2)*/Ki(D3)*” value is 45.

`CCCN1C[C@H]2C[C@@H](c3ccc(NS(=O)(=O)c4ccc(C(C)C)cc4)cc3)[C@H]2C1` (relative stereo) [Example 16, endo-4-Isopropyl-N-[4-(3-propyl-3-aza-bicyclo[3.2.0]hept-6-yl)-phenyl]-benzenesulfonamide]: in experiment [1], the Ki came to 5.3 nM and the “Ki(D2)*/Ki(D3)*” value is reported as 39. The Ki in experiment [2] was 208 nM.

In the case of `CCCN1C[C@@H]2C[C@@H](c3ccc(NS(=O)(=O)c4ccc(C(C)C)cc4)cc3)[C@@H]2C1` [Example 1, 4-Isopropyl-N-[4-((1R,5S,6R)-3-propyl-3-aza-bicyclo[3.2.0]hept-6-yl)-phenyl]-benzenesulfonamide], the Ki was 0.47 nM in experiment [1] and 12.9 nM in experiment [2]. For the same compound, the “Ki(D2)*/Ki(D3)*” value in experiment [1] was found to be 28.

Turning to `CCCN1C[C@@H]2C[C@@H](c3ccc(NS(=O)(=O)c4ccc(OC(F)(F)F)cc4)cc3)[C@@H]2C1` [Example 4, N-[4-((1R,5S,6R)-3-Propyl-3-aza-bicyclo[3.2.0]hept-6-yl)-phenyl]-4-trifluoromethoxy-benzenesulfonamide], in experiment [1], the Ki was determined as 5.43 nM and the “Ki(D2)*/Ki(D3)*” value is listed as 12. Also, the inhibition constant (Ki) in experiment [2] turned out to be 66.6 nM.

For `CCCN1C[C@@H]2C[C@@H](c3ccc(NS(=O)(=O)c4ccc(C(F)(F)F)cc4)cc3)[C@@H]2C1` [Example 5, N-[4-((1R,5S,6R)-3-Propyl-3-aza-bicyclo[3.2.0]hept-6-yl)-phenyl]-4-trifluoromethyl-benzenesulfonamide], in experiment [1], affinity was put at a Ki of 3.15 nM and the “Ki(D2)*/Ki(D3)*” value is 23. The inhibitory constant (Ki) in experiment [2] stood at 72.1 nM.

Take `C=CCN1C[C@@H]2C[C@@H](c3ccc(NS(=O)(=O)c4ccc(OC(F)(F)F)cc4)cc3)[C@@H]2C1` [Example 6, N-[4-((1R,5S,6R)-3-Allyl-3-aza-bicyclo[3.2.0]hept-6-yl)-phenyl]-4-trifluoromethoxy-benzenesulfonamide]: in experiment [1], affinity was put at a Ki of 4.13 nM and the “Ki(D2)*/Ki(D3)*” value came to 11. Further, in experiment [2], the Ki came to 47 nM.

`CCCN1C[C@@H]2C[C@@H](c3ccc(NS(=O)(=O)c4ccc(Br)cc4)cc3)[C@@H]2C1` [Example 7, 4-Bromo-N-[4-((1R,5S,6R)-3-propyl-3-aza-bicyclo[3.2.0]hept-6-yl)-phenyl]-benzenesulfonamide]: in experiment [1], the inhibitory constant (Ki) turned out to be 1.31 nM and the “Ki(D2)*/Ki(D3)*” value worked out at 24. For the same compound, in experiment [2], the Ki stood at 31.7 nM.

As for `CCCN1C[C@@H]2C[C@@H](c3ccc(NS(=O)(=O)c4ccc(SC(F)(F)F)cc4)cc3)[C@@H]2C1` [Example 8, N-[4-((1R,5S,6R)-3-Propyl-3-aza-bicyclo[3.2.0]hept-6-yl)-phenyl]-4-trifluoromethylsulfanyl-benzenesulfonamide], in experiment [1], the inhibition constant (Ki) was 1.81 nM and the “Ki(D2)*/Ki(D3)*” value was found to be 17. Further, in experiment [2], the inhibitory constant (Ki) was determined as 30.2 nM.

On to `CCCN1C[C@@H]2C[C@@H](c3ccc(NS(=O)(=O)c4ccc(N5CCC[C@@H]5COC)cc4)cc3)[C@@H]2C1` [Example 9, 4-((R)-2-Methoxymethyl-pyrrolidin-1-yl)-N-[4-((1R,5S,6R)-3-propyl-3-azabicyclo[3.2.0]hept-6-yl)-phenyl]-benzenesulfonamide], for which the inhibition constant Ki in experiment [1] was found to be 4.08 nM; in experiment [2], 54.8 nM. In addition, the “Ki(D2)*/Ki(D3)*” value in experiment [1] amounted to 13.

Turning to `CCCN1C[C@@H]2C[C@@H](c3ccc(NS(=O)(=O)c4ccc(N5CCCC5)cc4)cc3)[C@@H]2C1` [Example 10, N-[4-((1R,5S,6R)-3-Propyl-3-aza-bicyclo[3.2.0]hept-6-yl)-phenyl]-4-pyrrolidin-1-yl-benzenesulfonamide], the values for the Ki in experiment [1] and in experiment [2] were 1.98 nM and 32 nM, respectively. For the same compound, the “Ki(D2)*/Ki(D3)*” value in experiment [1] is recorded as 16.

For the compound `CCCN1C[C@@H]2C[C@@H](c3ccc(NS(=O)(=O)c4ccc(N5CCC5)cc4)cc3)[C@@H]2C1` [Example 11, 4-Azetidin-1-yl-N-[4-((1R,5S,6R)-3-propyl-3-aza-bicyclo[3.2.0]hept-6-yl)-phenyl]-benzenesulfonamide], in experiment [1], the affinity, expressed as Ki, was 2.19 nM and the “Ki(D2)*/Ki(D3)*” value is recorded as 26. Further, in experiment [2], the Ki turned out to be 56.7 nM.

With `CCCN1C[C@@H]2C[C@@H](c3ccc(NS(=O)(=O)c4ccc(-c5ccco5)cc4)cc3)[C@@H]2C1` [Example 12, N-[4-((1R,5S,6R)-3-Propyl-3-aza-bicyclo[3.2.0]hept-6-yl)-phenyl]-4-furan-2-yl-benzenesulfonamide], the inhibition constant Ki is 4.46 nM in experiment [1] and 37.6 nM in experiment [2]. Also, the “Ki(D2)*/Ki(D3)*” value in experiment [1] is on record as 8.

Turning to `CCCN1C[C@@H]2C[C@@H](c3ccc(NS(=O)(=O)c4ccc(-c5cccs5)cc4)cc3)[C@@H]2C1` [Example 13, N-[4-((1R,5S,6R)-3-Propyl-3-aza-bicyclo[3.2.0]hept-6-yl)-phenyl]-4-thiophen-2-yl-benzenesulfonamide], in experiment [1], the affinity corresponds to a Ki of 1.32 nM and the “Ki(D2)*/Ki(D3)*” value came to 10. Further, the inhibition constant Ki in experiment [2] is 13.1 nM.

Consider `CCCN1C[C@H]2C[C@H](c3ccc(NS(=O)(=O)c4ccc(C(C)C)cc4)cc3)[C@H]2C1` [Example 14, 4-Isopropyl-N-[4-((1S,5R,6S)-3-propyl-3-aza-bicyclo[3.2.0]hept-6-yl)-phenyl]-benzenesulfonamide], for which the “Ki(D2)*/Ki(D3)*” value in experiment [1] is listed as 8.
